From patent publication US10603345B2, “Pharmaceutical composition for treating respiratory disease” (Kunming Institute of Botany, The Chinese Academy of Sciences, priority 2015, dated 2020)

Legend:
Format in all cases: in vivo
[1] = system: SOD in serum and BALF of asthma model mouse; experiment: Effect on SOD in serum and BALF of asthma model mouse; conditions: ig 7 d, dose/kg: dexamethasone 2.0 mg, Test group 1 50, 2 25, picrinine 5.0, vallesamine 3.0, scholaricine 3.0, 19-epi-scholaricine 3.5 mg, x ± SD; for SOD lavage fluid: BALF
Method: (§1) Animal source: 25˜30 g male ICR mouse, from laboratory animal department of Kunming Medical University, License No. SCXK (Dian) 2011-0004.
(§2) Method and route: ovalbumin (OVA) was used to induce mouse asthma model, and after intragastrical administration for 7 d at a dose of 20 mL/kg, the animal was sacrificed at the eighth day.
(§3) Test group 1: picrinine, vallesamine, scholaricine and 19-epischolaricine prepared in Example 1.7 were homogeneously mixed at different ratios by weight (50 mg/kg), Test group 2: the alkaloid composition prepared in Example 1.4 (25 mg/kg). […]
(§4) Sample preparation: all the samples were prepared by using 0.5% carboxymethylcellulose sodium (0.5% CMC-Na).
Group and dose: in Test group 1, the ratio of picrinine, vallesamine, scholaricine and 19-epischolaricine by weight was 12:10:9:2, and the other groups and doses thereof were as described in Example 11.
Test index: SOD in serum and BALF was used as index, and was determined by xanthine oxidase method.

[2] = system: IgE in serum of asthma model mouse; experiment: Effect on IgE in serum of asthma model mouse; conditions: ELISA, ig 7 d, dose/kg: dexamethasone 2.0 mg, Test group 1 50, 2 25, picrinine 5.0, vallesamine 3.0, scholaricine 3.0, 19-epi-scholaricine 3.5 mg, x ± SD
Method: as §1, §2, §3, §4
Group and dose: In Test group 1, the ratio of picrinine, vallesamine, scholaricine and 19-epischolaricine by weight was 30:33:27:6, and the other groups and doses thereof were as described in Example 11.
Test index: immunoglobulin IgE in serum was used as index, and was determined by enzyme linked immunosorbent assay.

[3] = system: Eotaxin in serum of asthma model mouse; experiment: Effect on Eotaxin in serum of asthma model mouse; conditions: ELISA, ig 7 d, dose/kg: dexamethasone 2.0 mg, Test group 1 50, 2 25, picrinine 5.0, vallesamine 3.0, scholaricine 3.0, 19-epi-scholaricine 3.5 mg, x ± SD
Method: as §1, §2, §3, §4
Group and dose: in Test group 1, the ratio of picrinine, vallesamine, scholaricine and 19-epischolaricine by weight was 37:42:30:8, and the other groups and doses thereof were as described in Example 11.
Test index: eosinophil chemotactic factor (Eotaxin) in serum was used as index, and was determined by enzyme linked immunosorbent assay.

[4] = system: MDA in serum and BALF of asthma model mouse; experiment: Effect on MDA in serum and BALF of asthma model mouse; conditions: ig 7 d, dose/kg: dexamethasone 2.0 mg, Test group 1 50, 2 25, picrinine 5.0, vallesamine 3.0, scholaricine 3.0, 19-epi-scholaricine 3.5 mg, x ± SD; for MDA lavage fluid: BALF
Method: as §1, §2, §3, §4
Group and dose: in Test group 1, the ratio of picrinine, vallesamine, scholaricine and 19-epischolaricine by weight was 8:6:5:1, and the other groups and doses thereof were as described in Example 11.
Test index: MDA in serum and BALF was used as index, and was determined by thiobarbituric acid method.

[5] = system: IL-6 in serum of COPD model mouse; experiment: Effect on IL-6 in serum of COPD model mouse; conditions: ELISA, ig 7 d, dose/kg: dexamethasone 1 mg, Test group 1 50, 2 25, 3 10, picrinine 10, vallesamine 6, scholaricine 7, 19-epi-scholaricine 2 mg, x ± SD
Method: as §1
(§5) Method and route: lipopolysaccharide (LPS) plus smoke exposure was used for 30 days to induce mouse chronic obstructive pulmonary disease model; and after intragastrical administration for 7 d at a dose of 20 mL/kg, the animal was sacrificed at the eighth day.
(§6) Picrinine group (10 mg/kg), Vallesamine group (6.0 mg/kg), Scholaricine group (7.0 mg/kg), 19-epischolaricine group (2.0 mg/kg).
as §4
Group and dose: in Test group 1, the ratio of picrinine, vallesamine, scholaricine and 19-epischolaricine by weight was 38:30:27:7, and the other groups and doses thereof were as described in Example 10.
Test index: IL-6 in serum was used as index, and was determined by enzyme linked immunosorbent assay.

[6] = system: IL-4 in BALF of asthma model mouse; experiment: Effect on IL-4 in BALF of asthma model mouse; conditions: ELISA, ig 7 d, dose/kg: dexamethasone 2.0 mg, Test group 1 50, 2 25, picrinine 5.0, vallesamine 3.0, scholaricine 3.0, 19-epi-scholaricine 3.5 mg, x ± SD
Method: as §1, §2, §3, §4
Group and dose: in Test group 1, the ratio of picrinine, vallesamine, scholaricine and 19-epischolaricine by weight was 25:18:15:3, and the other groups and doses thereof were as described in Example 11. […]

[7] = system: MDA in serum and homogenate of COPD model mouse; experiment: Effect on MDA in serum and homogenate of COPD model mouse; conditions: ig 7 d; for content of MDA (serum or homogenate not given): vallesamine 6, scholaricine 7, 19-epi-scholaricine 2 mg/kg; for MDA Homogenate: lung homogenate; for MDA Homogenate / MDA Serum: dose/kg: dexamethasone 1 mg, Test group 1 50, 2 25, 3 10, picrinine 10, vallesamine 6, scholaricine 7, 19-epi-scholaricine 2 mg, x ± SD
Method: as §1, §5, §6, §4
Group and dose: in Test group 1, the ratio of picrinine, vallesamine, scholaricine and 19-epischolaricine by weight was 9:6:5:1, and the other groups and doses thereof were as described in Example 10.
Test index: MDA in serum and homogenate was used as index, and was determined by thibabituric acid method.

[8] = system: SOD in serum and homogenate of COPD model mouse; experiment: Effect on SOD in serum and homogenate of COPD model mouse; conditions: ig 7 d, dose/kg: dexamethasone 1 mg, Test group 1 50, 2 25, 3 10, picrinine 10, vallesamine 6, scholaricine 7, 19-epi-scholaricine 2 mg, x ± SD; for SOD homogenate: lung homogenate
Method: as §1, §5, §6, §4
Group and dose: in Test group 1, the ratio of picrinine, vallesamine, scholaricine and 19-epischolaricine by weight was 16:11:12:3, and the other groups and doses thereof were as described in Example 10.
Test index: SOD in serum and lung homogenate was used as index, and was determined by xanthine oxidase method.

[9] = system: white blood cell count and classification in BALF of COPD model mouse; experiment: Effect on white blood cell count and classification in BALF of COPD model mouse; conditions: COPD mouse (LPS plus smoke exposure 30 days), ig 7 d, dose/kg: dexamethasone 1 mg, Test group 1 50, 2 25, 3 10, picrinine 10, vallesamine 6, scholaricine 7, 19-epi-scholaricine 2 mg, x ± SD
Method: as §1, §5, §6, §4
Group and dose: in Test group 1, the ratio of picrinine, vallesamine, scholaricine and 19-epischolaricine by weight was 48:40:29:10, and the other groups and doses thereof were as described in Example 10.
Test index: total number of white blood cells and inflammatory cell classification in bronchoalveolar lavage fluid (BALF) were used as indexes, and were determined by full-automatic hemocytometer.

[10] = system: CRP in serum in COPD model mouse; experiment: Effect on CRP in serum in COPD model mouse; conditions: ELISA, ig 7 d, dose/kg: dexamethasone 1 mg, Test group 1 50, 2 25, 3 10, picrinine 10, vallesamine 6, scholaricine 7, 19-epi-scholaricine 2 mg, x ± SD
Method: as §1, §5, §6, §4
Group and dose: in Test group 1, the ratio of picrinine, vallesamine, scholaricine and 19-epischolaricine by weight was 25:19:20:4, and the other groups and doses thereof were as described in Example 10.
Test index: CRP in serum was used as index, and was determined by enzyme linked immunosorbent assay.

[11] = system: WBC count and eosinophil percentage in BALF of asthma model mouse; experiment: Effect on WBC count and eosinophil percentage in BALF of asthma model mouse; conditions: OVA-induced asthma mouse, ig 7 d, dose/kg: dexamethasone 2 mg, Test group 1 50, 2 25, picrinine 5.0, vallesamine 3.0, scholaricine 3.0, 19-epi-scholaricine 3.5 mg, x ± SD
Method: as §1, §2, §3, §4
Group and dose: in Test group 1, the ratio of picrinine, vallesamine, scholaricine and 19-epischolaricine by weight was 41:45:28:7, and the other groups and doses thereof were as described in Example 11.
Test index: number of white blood cells (WBCs) and number of eosinophil in bronchoalveolar lavage fluid (BALF) were used as index, and were determined by full-automatic hemocytometer.

Compound | SOD lavage fluid [1] [U/mL] | SOD Serum [1] [U/mL] | IgE [2] [µg/mL] | Eotaxin [3] [pg/mL] | MDA lavage fluid [4] [nmol/mL] | MDA Serum [4] [nmol/mL] | IL-6 [5] [pg/mL] | IL-4 [6] [pg/mL] | content of MDA (serum or homogenate not given) [7] | MDA Homogenate [7] [nmol/mL] | MDA Serum [7] [nmol/mL] | SOD homogenate [8] [U/mL] | Leukocyte number [9] | CRP [10] [pg/mL] | SOD Serum [8] [U/mL] | Eosinophil percentage [11] [%] | Number of WBCs [11] | Neutrophil number [9]
COC(=O)C1=C2Nc3c(O)cccc3[C@@]23CCN2C[C@@H]([C@H](C)O)[C@@H]1C[C@H]23 [19-epi-scholaricine, 19-epischolaricine] | 71.82 ± 12.39 | 73.85 ± 7.93 | 3.55 ± 0.87 | 8.74 ± 1.40 | 2.55 ± 1.47 | 13.55 ± 4.66 | 23.3 ± 4.1 | 11.16 ± 3.58 | significantly decrease | 6.03 ± 0.66 | 10.94 ± 1.67 | 61.32 ± 9.35 | 2.0 ± 1.6 ×10^5/mL | – | – | – | – | –
C/C=C1/CN2CC[C@@H]1[C@@](CO)(C(=O)OC)c1[nH]c3ccccc3c1C2 [vallesamine] | 70.88 ± 8.52 | 70.53 ± 7.77 | 3.57 ± 0.99 | 8.90 ± 2.36 | 2.92 ± 1.48 | 13.36 ± 6.10 | 25.0 ± 3.6 | 11.61 ± 2.40 | significantly decrease | 7.12 ± 1.44 | 11.07 ± 1.29 | 58.43 ± 5.73 | 1.8 ± 1.7 ×10^5/mL | 23.8 ± 1.9 | 91.72 ± 12.34 | 6.48 ± 2.84 | 0.73 ± 0.35 ×10^9/L | 0.75 ± 0.51 ×10^5/mL
C/C=C1/CN2[C@@H]3C[C@@]45c6ccccc6N[C@]4(O3)[C@@H]2C[C@@H]1[C@H]5C(=O)OC [picrinine] | 62.32 ± 8.22 | 70.31 ± 7.30 | 3.85 ± 0.72 | 9.03 ± 1.80 | 3.29 ± 2.07 | 14.03 ± 5.71 | 23.9 ± 3.9 | 12.60 ± 4.39 | – | 6.17 ± 1.46 | 11.21 ± 4.46 | 56.01 ± 12.78 | 2.1 ± 1.8 ×10^5/mL | 23.5 ± 2.2 | 91.15 ± 10.90 | 6.18 ± 3.61 | 0.91 ± 0.50 ×10^9/L | –
